In ChEMBL document CHEMBL1152560, “Substituted 2-arylbenzothiazoles as kinase inhibitors: hit-to-lead optimization” (Bioorg Med Chem, 2009):

Tests used:
[1] = target: 5'-AMP-activated protein kinase catalytic subunit alpha-1 (Homo sapiens) (UniProt Q13131); experiment: Residual activity of AMPK-alpha1 fl at 1 uM by microplate scintillation counting
[2] = target: Leukocyte tyrosine kinase receptor (Homo sapiens) (UniProt P29376); experiment: Residual activity of LTK at 1 uM by microplate scintillation counting
Sequence of Leukocyte tyrosine kinase receptor (Homo sapiens) (P29376 whole entry): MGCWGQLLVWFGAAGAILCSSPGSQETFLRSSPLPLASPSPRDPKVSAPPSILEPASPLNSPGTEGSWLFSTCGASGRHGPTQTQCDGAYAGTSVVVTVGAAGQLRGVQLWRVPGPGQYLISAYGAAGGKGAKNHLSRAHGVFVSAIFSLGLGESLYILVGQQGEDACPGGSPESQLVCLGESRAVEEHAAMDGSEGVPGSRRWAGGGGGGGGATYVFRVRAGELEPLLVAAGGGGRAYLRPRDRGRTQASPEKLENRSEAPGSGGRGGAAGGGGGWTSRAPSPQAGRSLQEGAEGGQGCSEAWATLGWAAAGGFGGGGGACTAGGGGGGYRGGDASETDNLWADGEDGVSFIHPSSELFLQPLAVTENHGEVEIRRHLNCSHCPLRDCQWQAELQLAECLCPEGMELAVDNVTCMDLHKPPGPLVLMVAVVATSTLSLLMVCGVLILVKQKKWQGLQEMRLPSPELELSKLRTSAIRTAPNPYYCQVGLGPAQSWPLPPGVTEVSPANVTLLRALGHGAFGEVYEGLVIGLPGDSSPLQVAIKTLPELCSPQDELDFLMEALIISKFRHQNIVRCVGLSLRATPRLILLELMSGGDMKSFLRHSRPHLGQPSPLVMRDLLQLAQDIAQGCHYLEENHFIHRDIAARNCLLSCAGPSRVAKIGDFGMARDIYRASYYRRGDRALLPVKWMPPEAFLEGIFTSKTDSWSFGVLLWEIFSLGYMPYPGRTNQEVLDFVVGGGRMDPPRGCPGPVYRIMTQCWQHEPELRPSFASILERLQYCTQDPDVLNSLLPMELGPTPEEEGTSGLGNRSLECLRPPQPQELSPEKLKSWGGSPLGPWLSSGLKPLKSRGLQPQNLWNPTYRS

[3] = target: SRSF protein kinase 3 (Homo sapiens) (UniProt Q9UPE1); experiment: Residual activity of STK23 at 0.1 uM by microplate scintillation counting
[4] = target: Dual specificity protein kinase CLK1 (Homo sapiens) (UniProt P49759); experiment: Residual activity of CLK1 at 1 uM by microplate scintillation counting
Sequence of Dual specificity protein kinase CLK1 (Homo sapiens) (P49759 whole entry, looked up): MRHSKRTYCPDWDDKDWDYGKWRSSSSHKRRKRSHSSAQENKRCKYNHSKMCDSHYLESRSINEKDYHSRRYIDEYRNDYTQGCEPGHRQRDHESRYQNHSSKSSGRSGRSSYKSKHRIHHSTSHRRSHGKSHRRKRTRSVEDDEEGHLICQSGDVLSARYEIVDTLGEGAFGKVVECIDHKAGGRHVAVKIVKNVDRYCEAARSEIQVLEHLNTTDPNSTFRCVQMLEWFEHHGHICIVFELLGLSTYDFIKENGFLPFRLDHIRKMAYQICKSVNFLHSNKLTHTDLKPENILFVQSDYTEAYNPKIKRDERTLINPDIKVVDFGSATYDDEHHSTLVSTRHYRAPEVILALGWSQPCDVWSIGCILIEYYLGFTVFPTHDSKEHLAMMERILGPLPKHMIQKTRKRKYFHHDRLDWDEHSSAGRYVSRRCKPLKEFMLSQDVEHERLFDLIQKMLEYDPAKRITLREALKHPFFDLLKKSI

[5] = target: Cyclin-dependent kinase 4/cyclin D1 (Homo sapiens) (UniProt P11802+P24385); experiment: Residual activity of CDK4/Cyclin D1 at 10 uM by microplate scintillation counting; assay type: protein-complex assay
[6] = target: Tyrosine-protein kinase Fgr (Homo sapiens) (UniProt P09769); experiment: Residual activity of FGR at 0.1 uM by microplate scintillation counting
Sequence of Tyrosine-protein kinase Fgr (Homo sapiens) (P09769 2-529 limits assumed): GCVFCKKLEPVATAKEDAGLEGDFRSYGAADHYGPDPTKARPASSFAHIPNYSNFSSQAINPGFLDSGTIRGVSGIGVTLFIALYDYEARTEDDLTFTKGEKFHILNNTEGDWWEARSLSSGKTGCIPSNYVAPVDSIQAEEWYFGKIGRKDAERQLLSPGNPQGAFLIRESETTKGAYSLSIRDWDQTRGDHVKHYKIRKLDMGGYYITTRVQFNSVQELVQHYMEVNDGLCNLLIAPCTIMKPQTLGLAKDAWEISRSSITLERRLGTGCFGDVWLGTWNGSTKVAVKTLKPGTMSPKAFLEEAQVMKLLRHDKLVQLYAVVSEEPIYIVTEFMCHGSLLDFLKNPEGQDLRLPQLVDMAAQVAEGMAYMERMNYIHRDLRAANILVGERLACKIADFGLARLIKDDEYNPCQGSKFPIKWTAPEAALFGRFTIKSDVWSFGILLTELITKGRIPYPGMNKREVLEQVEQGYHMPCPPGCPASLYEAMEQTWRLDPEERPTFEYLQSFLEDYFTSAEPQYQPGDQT

[7] = target: CDK3/cyclin E (Homo sapiens) (UniProt P24864+O96020+Q00526); experiment: Residual activity of CDK3/Cyclin E at 0.1 uM by microplate scintillation counting; assay type: protein-complex assay
Sequence of CDK3/cyclin E (Homo sapiens) (O96020 whole entry, looked up): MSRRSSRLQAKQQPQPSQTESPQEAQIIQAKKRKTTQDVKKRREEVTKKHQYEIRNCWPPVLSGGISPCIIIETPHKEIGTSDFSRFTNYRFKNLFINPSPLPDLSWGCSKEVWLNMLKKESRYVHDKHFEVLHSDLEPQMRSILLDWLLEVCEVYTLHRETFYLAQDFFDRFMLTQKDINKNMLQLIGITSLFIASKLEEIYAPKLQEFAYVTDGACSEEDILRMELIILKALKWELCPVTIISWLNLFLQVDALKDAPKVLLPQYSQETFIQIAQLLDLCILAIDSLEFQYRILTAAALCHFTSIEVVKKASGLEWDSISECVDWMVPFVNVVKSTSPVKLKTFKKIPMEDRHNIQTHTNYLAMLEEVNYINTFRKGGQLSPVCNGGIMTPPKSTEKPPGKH
Sequence of CDK3/cyclin E (Homo sapiens) (P24864 whole entry, looked up): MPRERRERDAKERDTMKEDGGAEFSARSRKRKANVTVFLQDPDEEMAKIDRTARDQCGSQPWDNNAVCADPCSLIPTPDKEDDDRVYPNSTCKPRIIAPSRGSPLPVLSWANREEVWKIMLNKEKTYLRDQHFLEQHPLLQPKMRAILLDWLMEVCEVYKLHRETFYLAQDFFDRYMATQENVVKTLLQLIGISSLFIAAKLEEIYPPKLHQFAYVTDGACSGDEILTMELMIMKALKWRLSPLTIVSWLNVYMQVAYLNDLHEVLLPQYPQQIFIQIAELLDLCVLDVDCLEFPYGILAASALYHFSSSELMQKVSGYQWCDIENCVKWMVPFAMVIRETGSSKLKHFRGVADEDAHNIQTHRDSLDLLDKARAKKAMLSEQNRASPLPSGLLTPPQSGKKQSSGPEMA
Sequence of CDK3/cyclin E (Homo sapiens) (Q00526 whole entry, looked up): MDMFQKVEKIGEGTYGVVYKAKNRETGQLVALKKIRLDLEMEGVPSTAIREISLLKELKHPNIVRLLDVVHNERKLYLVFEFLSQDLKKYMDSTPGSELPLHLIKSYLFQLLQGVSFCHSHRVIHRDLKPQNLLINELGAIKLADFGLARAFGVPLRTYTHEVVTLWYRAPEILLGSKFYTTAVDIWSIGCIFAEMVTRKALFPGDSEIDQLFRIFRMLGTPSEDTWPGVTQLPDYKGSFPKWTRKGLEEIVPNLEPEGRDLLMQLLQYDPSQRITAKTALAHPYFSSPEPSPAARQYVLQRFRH

[8] = target: T1, Muscle, skeletal receptor tyrosine-protein kinase (Homo sapiens) (UniProt O15146); experiment: Residual activity of MUSK at 10 uM by microplate scintillation counting
T1 sequence (whole entry): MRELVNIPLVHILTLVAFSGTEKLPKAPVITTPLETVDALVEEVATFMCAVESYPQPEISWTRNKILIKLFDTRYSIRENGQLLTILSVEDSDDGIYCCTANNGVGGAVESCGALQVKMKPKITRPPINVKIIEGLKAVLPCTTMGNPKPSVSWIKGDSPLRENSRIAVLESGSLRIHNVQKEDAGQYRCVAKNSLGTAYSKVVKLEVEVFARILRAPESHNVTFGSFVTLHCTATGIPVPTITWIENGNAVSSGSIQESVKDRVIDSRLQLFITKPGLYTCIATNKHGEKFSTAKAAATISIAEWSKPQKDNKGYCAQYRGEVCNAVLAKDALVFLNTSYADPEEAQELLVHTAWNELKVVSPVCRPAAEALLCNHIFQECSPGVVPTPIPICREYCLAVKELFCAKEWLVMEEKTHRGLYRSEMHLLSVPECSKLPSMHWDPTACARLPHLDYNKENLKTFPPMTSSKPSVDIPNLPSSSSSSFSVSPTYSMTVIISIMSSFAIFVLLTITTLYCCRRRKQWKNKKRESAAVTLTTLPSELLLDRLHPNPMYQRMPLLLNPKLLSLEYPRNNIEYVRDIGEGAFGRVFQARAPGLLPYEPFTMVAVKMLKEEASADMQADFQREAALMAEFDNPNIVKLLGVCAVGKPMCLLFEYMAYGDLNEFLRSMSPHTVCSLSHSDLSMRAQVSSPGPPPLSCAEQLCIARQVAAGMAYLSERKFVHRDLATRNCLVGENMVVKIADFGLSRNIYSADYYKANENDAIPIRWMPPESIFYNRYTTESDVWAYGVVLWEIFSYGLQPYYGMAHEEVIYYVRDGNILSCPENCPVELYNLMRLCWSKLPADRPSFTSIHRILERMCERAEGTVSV

[9] = target: Calcium/calmodulin-dependent protein kinase kinase 2 (Homo sapiens) (UniProt Q96RR4); experiment: Residual activity of CAMKK2 at 0.1 uM by microplate scintillation counting
Sequence of Calcium/calmodulin-dependent protein kinase kinase 2 (Homo sapiens) (Q96RR4 2-588 limits assumed): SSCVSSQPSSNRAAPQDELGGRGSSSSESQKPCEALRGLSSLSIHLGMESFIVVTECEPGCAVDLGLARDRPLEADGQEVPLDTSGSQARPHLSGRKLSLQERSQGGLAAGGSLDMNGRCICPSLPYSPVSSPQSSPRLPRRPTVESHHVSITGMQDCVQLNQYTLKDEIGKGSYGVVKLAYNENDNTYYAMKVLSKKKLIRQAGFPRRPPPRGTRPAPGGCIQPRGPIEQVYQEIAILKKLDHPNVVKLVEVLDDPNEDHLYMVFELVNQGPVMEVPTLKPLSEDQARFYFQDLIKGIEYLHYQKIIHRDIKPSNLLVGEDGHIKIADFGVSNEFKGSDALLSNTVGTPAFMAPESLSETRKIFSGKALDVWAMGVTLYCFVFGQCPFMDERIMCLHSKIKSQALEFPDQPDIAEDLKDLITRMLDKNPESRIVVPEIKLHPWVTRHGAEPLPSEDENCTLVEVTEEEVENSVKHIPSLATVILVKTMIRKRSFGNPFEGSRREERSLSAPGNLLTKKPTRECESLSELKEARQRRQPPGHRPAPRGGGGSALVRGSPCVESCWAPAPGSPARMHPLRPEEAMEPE

[10] = target: T2, cAMP-dependent protein kinase catalytic subunit PRKX (Homo sapiens) (UniProt P51817); experiment: Residual activity of PRKX at 0.1 uM by microplate scintillation counting
T2 sequence (whole entry): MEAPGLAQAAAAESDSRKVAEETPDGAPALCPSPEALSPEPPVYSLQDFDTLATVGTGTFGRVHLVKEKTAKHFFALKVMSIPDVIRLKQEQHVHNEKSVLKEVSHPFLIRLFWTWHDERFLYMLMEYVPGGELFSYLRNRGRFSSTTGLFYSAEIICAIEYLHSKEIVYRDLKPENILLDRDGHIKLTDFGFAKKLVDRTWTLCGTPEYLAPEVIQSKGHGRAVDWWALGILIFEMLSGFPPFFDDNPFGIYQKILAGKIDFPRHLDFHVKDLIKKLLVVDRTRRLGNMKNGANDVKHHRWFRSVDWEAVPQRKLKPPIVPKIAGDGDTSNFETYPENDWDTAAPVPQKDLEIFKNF

[11] = target: T3, Ephrin type-B receptor 3 (Homo sapiens) (UniProt P54753); experiment: Residual activity of EPHB3 at 0.1 uM by microplate scintillation counting
T3 sequence (whole entry): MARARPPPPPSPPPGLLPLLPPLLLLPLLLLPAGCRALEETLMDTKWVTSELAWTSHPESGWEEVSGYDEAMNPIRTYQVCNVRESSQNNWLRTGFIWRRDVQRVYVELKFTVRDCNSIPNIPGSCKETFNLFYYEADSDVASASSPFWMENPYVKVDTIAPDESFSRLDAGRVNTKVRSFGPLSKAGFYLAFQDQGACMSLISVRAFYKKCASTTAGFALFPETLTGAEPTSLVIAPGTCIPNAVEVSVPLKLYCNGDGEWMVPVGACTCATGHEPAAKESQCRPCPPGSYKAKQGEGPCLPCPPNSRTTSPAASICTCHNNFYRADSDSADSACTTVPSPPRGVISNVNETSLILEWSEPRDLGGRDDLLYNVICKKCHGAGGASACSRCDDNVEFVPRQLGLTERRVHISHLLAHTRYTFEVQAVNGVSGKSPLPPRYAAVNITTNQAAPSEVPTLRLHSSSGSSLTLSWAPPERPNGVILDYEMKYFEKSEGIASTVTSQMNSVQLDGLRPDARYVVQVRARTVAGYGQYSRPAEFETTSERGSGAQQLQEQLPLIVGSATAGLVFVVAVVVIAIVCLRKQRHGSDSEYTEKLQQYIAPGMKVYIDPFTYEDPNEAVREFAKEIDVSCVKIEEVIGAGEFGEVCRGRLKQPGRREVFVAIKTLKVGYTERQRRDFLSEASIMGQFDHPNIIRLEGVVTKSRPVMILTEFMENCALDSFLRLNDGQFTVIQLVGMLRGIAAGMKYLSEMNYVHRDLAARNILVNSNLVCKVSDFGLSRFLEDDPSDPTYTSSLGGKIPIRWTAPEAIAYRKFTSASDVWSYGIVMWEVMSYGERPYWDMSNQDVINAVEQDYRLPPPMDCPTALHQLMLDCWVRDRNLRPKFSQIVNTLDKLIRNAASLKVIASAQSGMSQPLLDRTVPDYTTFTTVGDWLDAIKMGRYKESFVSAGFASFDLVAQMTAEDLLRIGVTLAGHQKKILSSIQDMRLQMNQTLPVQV

[12] = target: Interleukin-1 receptor-associated kinase 1 (Homo sapiens) (UniProt P51617); experiment: Residual activity of IRAKI at 1 uM by microplate scintillation counting
Sequence of Interleukin-1 receptor-associated kinase 1 (Homo sapiens) (P51617 whole entry, looked up): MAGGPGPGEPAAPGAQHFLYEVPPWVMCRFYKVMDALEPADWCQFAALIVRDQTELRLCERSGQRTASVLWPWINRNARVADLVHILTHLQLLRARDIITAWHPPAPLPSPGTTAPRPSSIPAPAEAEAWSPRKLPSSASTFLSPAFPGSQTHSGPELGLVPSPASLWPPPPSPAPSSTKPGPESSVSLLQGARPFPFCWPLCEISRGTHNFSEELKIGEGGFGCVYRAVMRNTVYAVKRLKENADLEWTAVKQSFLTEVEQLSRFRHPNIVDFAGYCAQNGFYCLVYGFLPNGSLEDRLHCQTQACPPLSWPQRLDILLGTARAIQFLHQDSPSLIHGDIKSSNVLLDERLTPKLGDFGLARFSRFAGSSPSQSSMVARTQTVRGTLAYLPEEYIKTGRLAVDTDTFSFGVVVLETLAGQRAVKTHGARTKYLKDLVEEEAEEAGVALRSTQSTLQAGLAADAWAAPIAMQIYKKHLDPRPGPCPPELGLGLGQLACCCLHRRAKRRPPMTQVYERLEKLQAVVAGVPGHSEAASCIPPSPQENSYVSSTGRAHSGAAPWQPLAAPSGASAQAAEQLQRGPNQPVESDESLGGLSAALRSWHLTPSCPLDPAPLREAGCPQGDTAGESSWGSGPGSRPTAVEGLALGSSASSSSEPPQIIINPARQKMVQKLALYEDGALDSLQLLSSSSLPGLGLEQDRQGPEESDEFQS

Sequence of 5'-AMP-activated protein kinase catalytic subunit alpha-1 (Homo sapiens) (Q13131 whole entry, looked up): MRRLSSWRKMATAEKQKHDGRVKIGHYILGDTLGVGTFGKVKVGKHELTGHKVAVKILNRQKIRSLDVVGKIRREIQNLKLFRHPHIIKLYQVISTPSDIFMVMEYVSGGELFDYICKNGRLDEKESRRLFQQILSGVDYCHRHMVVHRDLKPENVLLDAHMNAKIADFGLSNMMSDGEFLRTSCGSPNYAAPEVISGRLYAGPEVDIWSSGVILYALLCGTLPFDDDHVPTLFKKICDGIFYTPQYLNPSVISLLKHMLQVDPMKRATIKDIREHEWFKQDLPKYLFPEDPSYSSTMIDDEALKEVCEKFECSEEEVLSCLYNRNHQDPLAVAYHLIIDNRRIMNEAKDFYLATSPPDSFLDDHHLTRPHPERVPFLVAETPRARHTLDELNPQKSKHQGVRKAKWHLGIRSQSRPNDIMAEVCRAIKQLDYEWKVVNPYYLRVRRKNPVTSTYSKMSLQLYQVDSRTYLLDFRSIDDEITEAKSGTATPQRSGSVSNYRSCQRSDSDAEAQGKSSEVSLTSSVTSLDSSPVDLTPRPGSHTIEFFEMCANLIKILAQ

residual activity [1] | residual activity [2] | residual activity [3] | residual activity [4] | residual activity [5] | residual activity [6] | residual activity [7] | residual activity [8] | residual activity [9] | residual activity [10] | residual activity [11] | residual activity [12] | Structure (SMILES)
91% | 143% | 80% | 107% | 101% | 96% | 90% | 46% | 91% | 86% | 102% | 58% | COc1cc2c(Oc3ccc(-c4nc5ccccc5s4)cc3)ncnc2cc1OCCCN1CCCC1
76% | 123% | 88% | 99% | 97% | 103% | 86% | 44% | 86% | 90% | 112% | 74% | COc1cc2c(Oc3ccc(-c4nc5ccccc5s4)cc3)ncnc2cc1OCCCN1CCN(C)CC1
77% | 127% | 88% | 104% | 99% | 103% | 98% | 41% | 84% | 93% | 117% | 93% | COc1cc2c(Oc3ccc(-c4nc5ccccc5s4)cc3F)ncnc2cc1OCCCN1CCN(C)CC1
